Assay results from US6610709B1, “2-n-substituted or unsubstituted-2-amino-5-methylpiperidine-3,4-diols and processes for the preparation thereof” (Zaidan Hojin Biseibutsu Kagaku Kenkyu Kai, priority 1999, dated 2003).

Columns and labels:
[1] = molecular target: T1, α-L-fucosidase (from bovine liver) (Bos taurus, UniProt Q2KIM0); assay: α-fucosidase-inhibitory activity assay (Test Example 1); format: biochemical; settings: substrate p-nitrophenyl α-L-fucopyranoside, citrate-phosphate buffer pH 6.3, 37° C., 60 minutes, read-out: 50% Inhibiory Concentration (IC50) Enzyme A (converted)
T1 construct: a product of Sigma Company, originated from bovine liver; purchased Sigma; host or cells: bovine liver
T1 sequence (Q2KIM0 23-468): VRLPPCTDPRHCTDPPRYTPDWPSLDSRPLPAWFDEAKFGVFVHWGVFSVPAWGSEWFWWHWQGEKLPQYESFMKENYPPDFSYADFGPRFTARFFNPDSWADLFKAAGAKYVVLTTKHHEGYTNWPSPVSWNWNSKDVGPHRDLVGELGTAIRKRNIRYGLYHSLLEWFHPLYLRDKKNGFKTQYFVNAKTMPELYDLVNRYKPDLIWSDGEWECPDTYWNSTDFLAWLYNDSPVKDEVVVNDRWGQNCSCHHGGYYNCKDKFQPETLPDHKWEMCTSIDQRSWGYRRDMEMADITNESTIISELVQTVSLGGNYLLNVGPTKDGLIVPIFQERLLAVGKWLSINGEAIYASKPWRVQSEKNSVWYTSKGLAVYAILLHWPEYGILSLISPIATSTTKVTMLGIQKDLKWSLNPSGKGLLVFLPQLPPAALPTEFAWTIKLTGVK
Experimental: This Test Example is a test example for determining the α-fucosidase-inhibitory activity of the compound of the general formula (I) according to this invention.
Assay of the α-fucosidase-inhibitory activity was conducted according to a modification of the method described in the “Journal of Biological Chemistry”, 252, pp.5194-5200 (1977).
(§1) Thus, 0.5 mL of 0.025M citrate-phosphate buffer (pH 6.3), 0.1 mL of the same buffer containing 1.5 mM p-nitrophenyl α-L-fucopyranoside dissolved therein, and 0.1 mL of either water or an aqueous solution containing as the tested compound any one of the compounds of the formulae (Ia), (Ib), (Ic) and (Id) according to this invention were mixed with each other and pre-incubated in a 96-well titer plate at 37° C. for 10 minutes. After the completion of the pre-incubation, to the pre-incubated mixture was added 0.01 mL of 0.025M citrate-phosphate buffer containing α-L-fucosidase (a product of Sigma Company, originated from bovine liver) dissolved therein, and thereafter the enzymatic reaction was conducted at 37° C. for 60 minutes. After the enzymatic reaction, to the resulting reaction solution was added 1.0 mL of 0.2M glycine-sodium hydroxide buffer (pH 10.5), in order to terminate the enzymatic reaction. Thereafter, the absorbance (designated as “a”) of light at 405 nm of the resulting reaction solution was measured. Concurrently, measurement was made of the absorbance (designated as “b”) of light at 405 nm of the reaction solution as obtained in the control test where the enzymatic reaction was conducted without addition of the test compound. Further, measurements were made of the absorbance (designated as “a′”) and the absorbance (designated as “b′”) of light at 405 nm of the reaction solutions as obtained in the blank tests where the enzymatic reaction had not been conducted in the assay test, and also in the control test for the blank tests, respectively.
(§2) The rate of inhibition to α-L-fucosidase was calculated by the equation: […]

[2] = molecular target: β-D-glucosidase (from almonds); assay: β-glucosidase-inhibitory activity assay (Test Example 2); format: biochemical, almond; settings: substrate p-nitrophenyl β-D-glucoside, same manner as Test Example 1
Experimental: as §1, §2
This Test Example is a test example for determining the α-glucosidase or β-glucosidase-inhibitory activity of the compounds according to this invention.
The evaluation of the α- or β-glucosidase-inhibitory activity was conducted according to a modification of the method described in the “Agricultural and Biological Chemistry”, 26, p.203 (1962). Namely, the test was conducted in the same manner as the test for the enzyme-inhibitory activity described in Test Example 1, except that either α-glucosidase originated from yeast, or β-glucosidase originated from almond (both enzymes are products of Sigma Company) was used as the glycosidase enzyme, and that p-nitrophenyl α-D-glucoside or p-nitrophenyl β-D-glucoside was used as the substrate. Furthermore, the enzyme-inhibitory activity was measured in the same manner as in Test Example 1, and the 50% inhibitions of the tested compounds against the enzymes were calculated, respectively.

| Compound | IC50 [1] | 50% Inhibiory Concentration (IC50) Enzyme C [2] |
| --- | --- | --- |
| CC(=O)N[C@@H]1NC[C@@H](C)[C@@H](O)[C@H]1O [Compound of the Formula (Ia), (2S,3S,4R,5R)-2-acetamido-5-methylpiperidine-3,4-diol] | 584 nM | 2.3 µg/mL |
| C[C@@H]1CN[C@@H](NC(=O)C(F)(F)F)[C@H](O)[C@@H]1O [Compound of the Formula (Ib), (2S,3S,4R,5R)-2-trifluoroacetamido-5-methyl-piperidine-3,4-diol] | 12.4 nM | 55 µg/mL |
| C[C@@H]1CN[C@@H](NC(=O)C(Cl)(Cl)Cl)[C@H](O)[C@@H]1O [Compound of the Formula (Ic), (2S,3S,4R,5R)-2-trichloroacetamido-5-methyl-piperidine-3,4-diol] | 10.3 nM | 50 µg/mL |

Continued, values first:

| IC50 [1] | 50% Inhibiory Concentration (IC50) Enzyme C [2] | Compound |
| --- | --- | --- |
| 14.5 nM | 60 µg/mL | C[C@@H]1CN[C@@H](N2C(=O)c3ccccc3C2=O)[C@H](O)[C@@H]1O [Compound of the Formula (Id), (2S,3S,4R,5R)-2-phthalimido-5-methylpiperidine-3,4-diol] |
| 20.5 nM | 50 µg/mL | C[C@@H]1CN[C@@H](N)[C@H](O)[C@@H]1O [Compound of the Formula (Ie), (2R,3S,4R,5R)-2-amino-5-methylpiperidine-3,4-diol] |
